The target of data set [1] is T1, human ERG potassium channel (hERG) (Homo sapiens, UniProt Q12809).
T1 construct: expressed in transfected cells; host or cells: HEK293, stably transfected, tetracycline-inducible promoter
As to the kind of experiment: hERG channel tail current recording using in vitro Rapid ICE (automated patch-clamp, QPatch HTX). The class given is cell-based. The settings on record: Table 26. Here is the method: Protocol—Measure of the Effect on hERG Channel by Tail Current Recording Using In Vitro Rapid ICE
The potency of the example compounds in inhibiting human ERG potassium channel (hERG) tail current was assessed in a recombinant HEK293 cell line stably transfected with hERG cDNA under an inducible promoter, using Rapid ICE (rapid ion channel electrophysiology) assay. Rapid ICE is an automated patch-clamp assay utilizing the QPatch HTX system (Sophion Bioscience A/S). Briefly, inducible HEK hERG cells were cultivated in minimum essential medium supplemented with 10% FBS, 1% non-essential amino acids, 1% sodium pyruvate, 2 mM 1-glutamine, 15 μg/mL blasticidin, and 100 μg/mL hygromycin. hERG channel expression induction was obtained by adding 10 μg/mL tetracycline for 24, 48, or 72 h before recordings.
On the day of the experiment, cells were detached with TrypLE and prepared to be loaded on the instrument. Cells were resuspended in 7 mL of Serum-Free Media containing 25 mM Hepes and soybean trypsin inhibitor and immediately placed in the cell storage tank of the machine. The composition of the extracellular buffer was (mM): NaCl 137, KCl 4, CaCl2 1.8, MgCl2 1.0, d-glucose 10, N-2-hydroxyethylpiperazine-N′-2-ethanesulfonic acid (HEPES) 10, pH 7.4 with 1 M NaOH. The composition of the intracellular solution was (mM): KCl 130, MgCl2 1.0, ethylene glycol-bis(β-aminoethyl ether)-N,N,N′,N′-tetraacetic acid (EGTA) 5, MgATP 5, HEPES 10, pH 7.2 with 1 M KOH. The voltage protocol included the following steps: step from −80 to −50 mV for 200 ms, +20 mV for 4.8 s, step to −50 mV for 5 s, then step to the holding potential of −80 mV. Compounds were dissolved in DMSO and diluted in extracellular buffer to achieve final test concentrations (0.3, 3, and 30 μM) in 0.3% DMSO. The voltage protocol was run and recorded continuously during the experiment. The vehicle, corresponding to 0.3% DMSO in extracellular buffer was then applied for 3 min, followed by the test substance in triplicate. The standard combined exposure time was 5 min. The average of tail current amplitude values recorded from four sequential voltage pulses was used to calculate for each cell the effect of the test substance by calculating the residual current (% control) compared with vehicle pretreatment. Data were reported as % inhibition for each concentration tested, and IC50 values were estimated using QPatch software. At least two cells were tested, and even more if results diverged.

Data set [2] has as its system ATF4. As to the kind of experiment: HEK-ATF4 High Content Imaging assay (prevention of Tunicamycin induced ISR; ATF4 signal ratio between nucleus and cytoplasm). The class given is cell-based. The conditions noted are these: Homo sapiens; Wild-type HEK293 cells, Tunicamycin induced ISR, 6 h; read-out: IIEK-ATF4 Activity. On the procedure:
HEK-ATF4 High Content Imaging Assay
Example compounds were tested in the HEK-ATF4 High Content Imaging assay to assess their pharmacological potency to prevent Tunicamycin induced ISR. Wild-type HEK293 cells were plated in 384-well imaging assay plates at a density of 12,000 cells per well in growth medium (containing DMEM/F12, 10% FBS, 2 mM L-Glutamine, 100 U/mL Penicillin-100 μg/mL Streptomycin) and incubated at 37° C., 5% CO2. 24 h later, the medium was changed to 50 μL assay medium per well (DMEM/F12, 0.3% FBS, 2 mM L-Glutamine, 100 U/mL Penicillin-100 μg/mL Streptomycin). Example compounds were serially diluted in DMSO, spotted into intermediate plates and prediluted with assay medium containing 3.3 μM Tunicamycin to give an 11-fold excess of final assay concentration. In addition to the example compound testing area, the plates also contained multiples of control wells for assay normalization purposes, wells containing Tunicamycin but no example compounds (High control), as well as wells containing neither example compound nor Tunicamycin (Low control). The assay was started by transferring 5 μL from the intermediate plate into the assay plates, followed by incubation for 6 h at 37° C., 5% CO2. Subsequently, cells were fixed (4% PFA in PBS, 20 min at r.t.) and submitted to indirect ATF4 immunofluorescence staining (primary antibody rabbit anti ATF4, clone D4B8, Cell Signaling Technologies; secondary antibody Alexa Fluor 488 goat anti-rabbit IgG (H+L), Thermofisher Scientific). Nuclei were stained using Hoechst dye (Thermofisher Scientific), and plates were imaged on an Opera Phenix High Content imaging platform equipped with 405 nm and 488 nm excitation. Finally, images were analyzed using script based algorithms. The main readout HEK-ATF4 monitored the ATF4 signal ratio between nucleus and cytoplasm. Tunicamycin induced an increase in the overall ATF4 ratio signal, which was prevented by ISR modulating example compounds. In addition, HEK-CellCount readout was derived from counting the number of stained nuclei corresponding to healthy cells. This readout served as an internal toxicity control.

The nature of data set [3]: Thermodynamic (Equilibrium) solubility in selected buffer. The settings on record: aqueous buffer, thermodynamic from solid, Table 25. The class given is physicochemical. On the procedure:
Protocol—Thermodynamic (Equilibrium) Solubility in Selected Buffer
Example compounds were tested in the Thermodynamic (Equilibrium) solubility in selected buffer assay. The test compound, in powder form, was weighted into a 4 mL glass vial and a calculated volume of selected medium was added to reach the target concentration of the solubility test (1 mg/mL). The solution was then stirred overnight at r.t. protected from the light. The solution was filtered through a 0.45 μm PTFE membrane at ambient temperature. An aliquot of the resulting filtrate was quantified using UPLC-UV method described below against a reference solution of the test compound, 0.8 mg/mL in DMSO. Media compositions: Phosphate buffer 50 mM (pH=2.0) […] of NaH2PO4, H2O in 200 mL of ultrapurified water adjusted at pH 2 with phosphoric acid 85%; Acetate buffer 50 mM (pH=5.5) 820 mg of anhydrous sodium acetate in 200 mL of ultrapurified water adjusted at pH 5.5 with acetic acid 99.8%; Phosphate buffer 50 mM (pH=7.4) 40.5 mL of Na2HPO4 0.1 M solution+9.5 mL of NaH2PO4 0.1 M solution. Analytical conditions: UPLC-UV-MS analyses were performed with a Waters Acquity UPLC HClass-PDA-QDa system using a reverse phase Acquity BEH C18 column (2.1 mm×50 mm, 1.7 μm; temperature: 40° C.) and a gradient of 10-95% B (A=0.1% formic acid in H2O; B=0.05% formic acid in ACN) over 1.8 min then 100% B for 0.8 min, with an injection volume of 0.4 μL at flow rate of 0.65 mL/min. UV chromatograms were recorded at 220 nm, 254 nm and 290 nm using a photo diode array detector. Mass spectra were recorded in the 150 to 900 M/Z range at a sampling rate of 10 scans per sec using a QDa detector. Data were integrated using Empower®3 software. Data Analysis: Equilibrium solubility of the test compound in the selected medium was calculated through the ratio of the surface area of the UV chromatographic peak of the compound in the filtrate to the surface of the UV chromatographic peak of the compound in the reference solution.

The mark [4] stands for this setting: acetate buffer 50 mM, pH 5.5, read-out: Solubility (μg/mL) pH 5.5.
Setting [5] is: phosphate buffer 50 mM, pH 2.0, read-out: Solubility (μg/mL) pH 2.0.
[6] abbreviates: phosphate buffer 50 mM, pH 7.4, read-out: Solubility (μg/mL) pH 7.4.

Structures are written as SMILES. ≈ marks a conversion by molar mass, not a printed value. Where two headings read alike, the source gives them in different places.

T1 sequence (Q12809 whole entry): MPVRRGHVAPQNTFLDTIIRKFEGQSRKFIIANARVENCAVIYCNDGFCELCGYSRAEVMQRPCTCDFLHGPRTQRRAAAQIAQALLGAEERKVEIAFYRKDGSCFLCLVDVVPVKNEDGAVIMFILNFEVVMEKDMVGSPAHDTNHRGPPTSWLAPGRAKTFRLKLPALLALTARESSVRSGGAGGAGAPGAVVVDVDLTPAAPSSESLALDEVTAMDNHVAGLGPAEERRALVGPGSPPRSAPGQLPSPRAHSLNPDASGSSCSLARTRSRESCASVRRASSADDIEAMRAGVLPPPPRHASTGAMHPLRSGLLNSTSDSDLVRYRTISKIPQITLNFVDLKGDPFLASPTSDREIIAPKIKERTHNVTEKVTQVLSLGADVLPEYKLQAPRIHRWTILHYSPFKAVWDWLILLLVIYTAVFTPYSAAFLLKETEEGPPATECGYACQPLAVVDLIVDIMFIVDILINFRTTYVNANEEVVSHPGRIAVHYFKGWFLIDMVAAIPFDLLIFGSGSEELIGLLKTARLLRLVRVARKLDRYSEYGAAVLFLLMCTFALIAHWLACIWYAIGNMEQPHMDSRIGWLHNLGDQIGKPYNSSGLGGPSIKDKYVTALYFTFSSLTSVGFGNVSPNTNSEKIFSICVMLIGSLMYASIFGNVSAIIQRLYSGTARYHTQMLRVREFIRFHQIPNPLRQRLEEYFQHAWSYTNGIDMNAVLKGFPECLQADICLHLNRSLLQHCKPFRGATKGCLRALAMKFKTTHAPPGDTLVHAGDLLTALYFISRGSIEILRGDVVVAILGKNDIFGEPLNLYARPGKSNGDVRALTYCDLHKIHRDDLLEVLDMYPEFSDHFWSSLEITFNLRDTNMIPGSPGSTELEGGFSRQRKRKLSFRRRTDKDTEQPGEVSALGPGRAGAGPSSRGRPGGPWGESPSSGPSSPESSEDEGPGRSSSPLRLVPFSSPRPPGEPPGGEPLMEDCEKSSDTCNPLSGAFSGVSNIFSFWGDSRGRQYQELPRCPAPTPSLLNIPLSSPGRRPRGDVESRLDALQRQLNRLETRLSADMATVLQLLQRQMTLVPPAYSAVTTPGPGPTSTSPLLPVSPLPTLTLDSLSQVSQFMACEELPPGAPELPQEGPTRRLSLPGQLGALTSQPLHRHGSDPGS

As for `O=C(COc1ccc(Cl)c(F)c1)N[C@@H]1CC[C@H](c2nnc([C@H]3C[C@@H](OC(F)(F)F)C3)o2)NC1=O` (racemic) [Example 38, rac-2-(4-chloro-3-fluorophenoxy)-N-[(3R,6R)-2-oxo-6-{5-[(1s,3s)-3-(trifluoromethoxy)cyclobutyl]-1,3,4-oxadiazol-2-yl}piperidin-3-yl]acetamide], the IC50 in data set [1] is over 5 µM; in data set [2], 2 to 15 µM.
On the same counts, the results for `O=C(COc1ccc(Cl)c(F)c1)N[C@H]1CC[C@H](c2nnc(OCCO[C@@H]3CC3(F)F)o2)NC1` (single isomer, unassigned) [Example 102] are 1 to 5 µM and 0.5 to 2 µM.
For `O=C(COc1ccc(Cl)c(F)c1)N[C@H]1CC[C@H](c2nnc(OCCO[C@H]3CC3(F)F)o2)NC1` (single isomer, unassigned) [Example 103], in that order: over 5 µM and 0.001 to 0.5 µM.
On the same counts, the results for `O=C(COc1ccc(Cl)c(F)c1)N[C@H]1CC[C@H](c2nnc([C@H]3C[C@@H](OC4CC4)C3)o2)NC1` (single isomer, unassigned) [Example 105] are over 5 µM and 0.5 to 2 µM.
With `C[C@@H](Oc1ccc(Cl)cc1)C(=O)N[C@H]1CC[C@H](c2nnc(-c3ccc(C(F)(F)F)cc3)o2)NC1` (single isomer, unassigned) [Example 106], the IC50 in data set [1] is 1 to 5 µM; in data set [2], 2 to 15 µM.
Regarding `O=C(COc1ccc(Cl)c(F)c1)N[C@H]1CC[C@H](c2nnc(-c3ccc(Cl)cc3)o2)NC1=O` (single isomer, unassigned) [Example 108], the IC50 in data set [1] was in the range of 0.001 to 1 µM; in data set [2], 2 to 15 µM.
For `O=C(COc1ccc(Cl)c(F)c1)N[C@@H]1CC[C@@H](c2nnc(-c3ccc(Cl)cc3)o2)NC1=O` (single isomer, unassigned) [Example 109], in that order: 0.001 to 1 µM and 0.001 to 0.5 µM.
In the case of `O=C(COc1ccc(Cl)c(F)c1)N[C@H]1CC[C@H](c2nnc(-c3ccc(C(F)(F)F)cc3)o2)NC1` [Example 2, 2-(4-chloro-3-fluorophenoxy)-N-[(3S,6R)-6-{5-[4-(trifluoromethyl)phenyl]-1,3,4-oxadiazol-2-yl}piperidin-3-yl]acetamide], the IC50 in data set [1] fell in the range of 0.001 to 1 µM; in data set [2], 0.001 to 0.5 µM.
Molecule `CC(Oc1ccc(Cl)cc1)C(=O)N[C@H]1CC[C@H](c2nnc(-c3ccc(C(F)(F)F)cc3)o2)NC1` (stereo partly drawn) [Example 4, 2-(4-chlorophenoxy)-N-[(3S,6R)-6-{5-[4-(trifluoromethyl)phenyl]-1,3,4-oxadiazol-2-yl}piperidin-3-yl]propanamide] showed an IC50 in data set [1] of 0.001 to 1 µM.
Regarding `O=C(COc1cnc(Cl)c(F)c1)N[C@H]1CC[C@H](c2nnc(-c3ccc(Cl)cc3)o2)NC1` [Example 7, 2-[(6-chloro-5-fluoropyridin-3-yl)oxy]-N-[(3S,6R)-6-[5-(4-chlorophenyl)-1,3,4-oxadiazol-2-yl]piperidin-3-yl]acetamide], the figures for the IC50 in data set [1] and in data set [2] were 0.001 to 1 µM and 0.001 to 0.5 µM, respectively.
As for `O=C(COc1ccc(Cl)c(Cl)c1)N[C@H]1CC[C@H](c2nnc([C@H]3C[C@@H](OC(F)(F)F)C3)o2)NC1` [Example 9, 2-(3,4-dichlorophenoxy)-N-[(3S,6R)-6-{5-[(1s,3s)-3-(trifluoromethoxy)cyclobutyl]-1,3,4-oxadiazol-2-yl}piperidin-3-yl]acetamide], the IC50 was 1 to 5 µM in data set [1] and 0.001 to 0.5 µM in data set [2].
For `O=C(COc1ccc(C(F)(F)F)c(Cl)c1)N[C@H]1CC[C@H](c2nnc([C@H]3C[C@@H](OC(F)(F)F)C3)o2)NC1` [Example 10, 2-[3-chloro-4-(trifluoromethyl)phenoxy]-N-[(3S,6R)-6-{5-[(1s,3s)-3-(trifluoromethoxy)cyclobutyl]-1,3,4-oxadiazol-2-yl}piperidin-3-yl]acetamide], in that order: 1 to 5 µM and 0.001 to 0.5 µM.
For `COc1cc(OCC(=O)N[C@H]2CC[C@H](c3nnc(OCCOC(F)(F)F)o3)NC2)ccc1C(F)(F)F` [Example 15, 2-[3-methoxy-4-(trifluoromethyl)phenoxy]-N-[(3S,6R)-6-{5-[2-(trifluoromethoxy)ethoxy]-1,3,4-oxadiazol-2-yl}piperidin-3-yl]acetamide], in that order: over 5 µM and 0.001 to 0.5 µM.
`Cc1ccc(-c2nnc([C@H]3CC[C@H](NC(=O)COc4ccc(Cl)c(F)c4)CN3)o2)cn1` [Example 34, 2-(4-chloro-3-fluorophenoxy)-N-[(3S,6R)-6-[5-(6-methylpyridin-3-yl)-1,3,4-oxadiazol-2-yl]piperidin-3-yl]acetamide]: the solubility came to 239 µg/mL (≈ 536 µM) in data set [3] (setting [4]), 994 µg/mL (≈ 2230 µM) in data set [3] (setting [5]) and 153 µg/mL (≈ 343 µM) in data set [3] (setting [6]). The IC50 in data set [2] is 0.5 to 2 µM.
For `Cn1nc(-c2nnc([C@H]3CC[C@H](NC(=O)COc4ccc(Cl)c(F)c4)CN3)o2)cc1Cl` [Example 51, N-[(3S,6R)-6-[5-(5-chloro-1-methyl-1H-pyrazol-3-yl)-1,3,4-oxadiazol-2-yl]piperidin-3-yl]-2-(4-chloro-3-fluorophenoxy)acetamide], in that order: 4 µg/mL (≈ 8.52 µM), 945 µg/mL (≈ 2010 µM), 2 µg/mL (≈ 4.26 µM) and 0.5 to 2 µM.

The values above are taken from US12258338B2, “Modulators of the integrated stress response pathway” (EVOTEC INTERNATIONAL GMBH, priority 2019, dated 2025).
